The target of one experiment is T1, ACL (Homo sapiens (Human), UniProt P53396). In words: ADP-Glo Assay.
Details: not given
On the technique in general: ADP-Glo turns the ADP formed in a reaction into a luminescent signal.
Target sequence in this assay (P53396 other isoform, or with tags, fused parts or gaps isoform P53396-2): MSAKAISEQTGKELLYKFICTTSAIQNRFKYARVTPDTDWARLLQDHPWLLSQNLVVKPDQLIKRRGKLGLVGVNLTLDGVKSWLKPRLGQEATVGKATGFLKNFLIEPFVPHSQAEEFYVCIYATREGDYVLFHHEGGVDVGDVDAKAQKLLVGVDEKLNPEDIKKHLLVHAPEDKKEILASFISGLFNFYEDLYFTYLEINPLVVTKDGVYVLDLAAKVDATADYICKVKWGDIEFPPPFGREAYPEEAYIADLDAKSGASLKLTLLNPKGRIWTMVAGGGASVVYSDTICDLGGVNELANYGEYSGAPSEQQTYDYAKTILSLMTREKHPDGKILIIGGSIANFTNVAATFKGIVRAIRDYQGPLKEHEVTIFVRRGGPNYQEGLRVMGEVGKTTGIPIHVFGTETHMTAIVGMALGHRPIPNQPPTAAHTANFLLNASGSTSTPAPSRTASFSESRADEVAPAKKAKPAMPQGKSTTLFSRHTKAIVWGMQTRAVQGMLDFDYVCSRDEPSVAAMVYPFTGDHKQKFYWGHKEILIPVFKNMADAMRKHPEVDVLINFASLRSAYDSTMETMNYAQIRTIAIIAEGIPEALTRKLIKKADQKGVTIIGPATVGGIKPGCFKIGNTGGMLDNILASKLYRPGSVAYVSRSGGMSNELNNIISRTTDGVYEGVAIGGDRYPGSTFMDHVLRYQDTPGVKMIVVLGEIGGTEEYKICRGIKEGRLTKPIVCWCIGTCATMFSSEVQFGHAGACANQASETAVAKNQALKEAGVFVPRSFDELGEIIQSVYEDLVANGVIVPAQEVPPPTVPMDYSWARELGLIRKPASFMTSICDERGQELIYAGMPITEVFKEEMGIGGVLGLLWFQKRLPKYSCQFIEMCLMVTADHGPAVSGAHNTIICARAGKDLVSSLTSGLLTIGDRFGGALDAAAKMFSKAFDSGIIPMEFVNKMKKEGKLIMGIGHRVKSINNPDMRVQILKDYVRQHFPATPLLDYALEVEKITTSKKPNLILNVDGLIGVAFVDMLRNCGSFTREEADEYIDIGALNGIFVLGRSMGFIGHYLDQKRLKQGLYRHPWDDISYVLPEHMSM
As usually defined, the IC50 is the point on the concentration scale where inhibition reaches its midpoint. Regarding `O=C(O)c1ccc(-c2ccccc2)cc1NS(=O)(=O)c1cc(Cl)c[nH]c1=O` [I-350, 3-((5-chloro-2-oxo-1,2-dihydropyridine)-3-sulfonamido)-[1,1′-biphenyl]-4-carboxylic acid], the IC50 lay in the range of 0.5 to 20 µM.

Turning to `COC(=O)c1cc(Cl)c(O)c(C(=O)Nc2cc(-c3ccccc3)c(F)cc2F)c1` [I-146, methyl 3-chloro-5-((4,6-difluoro-[1,1′-biphenyl]-3-yl)carbamoyl)-4-hydroxybenzoate], the IC50 lay in the range of 0.5 to 20 µM.

Turning to `N#Cc1cc(Cl)cc(S(=O)(=O)Nc2cc(-c3ccccc3)ccc2F)c1O` [I-29, 5-chloro-3-cyano-N-(2-fluoro-5-phenylphenyl)-2-hydroxybenzene-1-sulfonamide], the IC50 was in the range of 0.5 to 20 µM.

`CC(C)(C)OC(=O)COc1ccc(-c2ccccc2)cc1NS(=O)(=O)c1cc(C(=O)N2CCC2)cc(Cl)c1O` [I-266, tert-butyl 2-((3-((5-(azetidine-1-carbonyl)-3-chloro-2-hydroxyphenyl)sulfonamido)-[1,1′-biphenyl]-4-yl)oxy)acetate] showed an IC50 of 0.5 to 20 µM.

`CC(C)(Oc1ccc(-c2ccccc2)cc1NS(=O)(=O)c1cc(Cl)cc(Cl)c1O)C(=O)O` [I-239, 2-((3-((3,5-dichloro-2-hydroxyphenyl)sulfonamido)-[1,1′-biphenyl]-4-yl)oxy)-2-methylpropanoic Acid] showed an IC50 of 0.5 to 20 µM.

Turning to `O=C(O)c1ccc(-c2ccccc2)cc1NS(=O)(=O)c1c(Cl)nc2sccn12` [I-332], the IC50 was 0.5 to 20 µM.

`COc1ccc(-c2ccccc2)cc1NS(=O)(=O)c1ccccc1O` [I-528, 2-hydroxy-N-(4-methoxy-[1,1′-biphenyl]-3-yl)benzenesulfonamide] returned an IC50 greater than 20 µM.

`NC(=O)Cc1ccc(-c2ccccc2)cc1NS(=O)(=O)c1cc(Cl)cc(Cl)c1` [I-245, 2-(3-((3,5-dichlorophenyl)sulfonamido)-[1,1′-biphenyl]-4-yl)acetamide] returned an IC50 of 0.5 to 20 µM.

With `O=C(O)c1ccc(-c2ccccc2)cc1NS(=O)(=O)Cc1ccccc1` [I-257], the IC50 was 0.5 to 20 µM.

Turning to `O=C1COc2cc(S(=O)(=O)Nc3cc(-c4ccccc4)ccc3F)c(Cl)cc2N1` [I-255], the IC50 is 0.5 to 20 µM.

The molecule `COc1ccc(-c2ccc(OC)c(NS(=O)(=O)c3cc(Cl)cc(Cl)c3O)c2)cc1` [I-5, 3,5-dichloro-N-(4,4′-dimethoxy-[1,1′-biphenyl]-3-yl)-2-hydroxybenzenesulfonamide] came in with an IC50 of 0.5 to 20 µM.

The molecule `O=S(=O)(NCC1(Cc2ccc(F)cc2)CC1)c1cc(Cl)cc(Cl)c1O` [I-187] gave an IC50 of 0.5 to 20 µM.

Take `N#Cc1cc(S(=O)(=O)Nc2cc(-c3ccccc3)c(F)cc2F)ccc1Cl` [I-196, 4-chloro-3-cyano-N-(4,6-difluoro-[1,1′-biphenyl]-3-yl) benzenesulfonamide]: the IC50 fell in the range of 0.5 to 20 µM.

As for `O=C(O)c1ccc(-c2ccccc2)cc1NS(=O)(=O)c1ccc2[nH]c(=O)[nH]c2c1` [I-258], the IC50 lay in the range of 0.5 to 20 µM.

`O=S(=O)(NC1(c2ccc(F)cc2)CC1)c1cc(Cl)cc(Cl)c1O` [I-180] had an IC50 of 0.5 to 20 µM.

`COc1ccc(-c2ccccc2)cc1NS(=O)(=O)c1cc(CC(=O)O)cc(Cl)c1OC` [I-439, 2-[3-chloro-4-methoxy-5-[(2-methoxy-5-phenylphenyl)sulfamoyl]phenyl]acetic Acid] had a half-inhibitory concentration (IC50) greater than 20 µM.

The molecule `O=C(O)c1ccc(-c2ccccc2)cc1NS(=O)(=O)c1cc(Br)cc2c1OCCNC2=O` [I-359] showed an IC50 of 0.5 to 20 µM.

`Cc1c(C(=O)O)cc(Cl)c(O)c1S(=O)(=O)Nc1cc(-c2ccccc2)c(F)cc1F` [I-132, 5-chloro-3-([4,6-difluoro-[1,1-biphenyl]-3-yl]sulfamoyl)-4-hydroxy-2-methylbenzoic Acid] displayed an IC50 of 0.5 to 20 µM.

`NC(=O)c1ccc(F)c(S(=O)(=O)Nc2cc(-c3ccccc3)ccc2F)c1` [I-429, 4-fluoro-3-(N-(4-fluoro-[1,1′-biphenyl]-3-yl)sulfamoyl)benzamide] registered an IC50 greater than 20 µM.

Take `O=C(O)c1cc(NC(=O)c2cccc3ncccc23)ccc1Cl` [I-531, 2-chloro-5-(quinoline-5-carboxamido)benzoic acid]: the IC50 is greater than 20 µM.

Take `O=S(=O)(Nc1cc(-c2ccccc2)ccc1F)c1ccccc1O` [I-35, N-(2-fluoro-5-phenylphenyl)-2-hydroxybenzene-1-sulfonamide]: the IC50 lay within 0.5 to 20 µM.

The molecule `CC(C)n1ncc2cc(NS(=O)(=O)c3cc(Cl)cc(Cl)c3O)ccc21` [I-169] gave an IC50 of 0.5 to 20 µM.

On to `O=C(O)c1cc(Cl)c(O)c(S(=O)(=O)Nc2ccc(F)c(-c3ccccc3)c2F)c1` [I-444, 3-chloro-5-[(2,4-difluoro-3-phenylphenyl)sulfamoyl]-4-hydroxybenzoic acid], for which the IC50 was greater than 20 µM.

`O=S(=O)(Nc1cc(-c2ccccc2)ccc1F)c1cccc(-c2nn[nH]n2)c1` [I-37, N-(2-fluoro-5-phenylphenyl)-3-(2H-1,2,3,4-tetrazol-5-yl) benzene-1-sulfonamide] registered an IC50 of 0.5 to 20 µM.

`COc1c(Br)cc(C(=O)N2CCC2)cc1S(=O)(=O)Nc1cc(-c2ccccc2)ccc1F` [I-154, 5-(azetidine-1-carbonyl)-3-bromo-N-(4-fluoro-[1,1′-biphenyl]-3-yl)-2-methoxybenzenesulfonamide] returned an IC50 of 0.5 to 20 µM.

For the molecule `O=C(O)c1ccc(-c2ccccc2)cc1NS(=O)(=O)c1cc(Cl)cc(Cl)c1F` [I-342, 3-((3,5-dichloro-2-fluorophenyl)sulfonamido)-[1,1′-biphenyl]-4-carboxylic Acid], the IC50 fell in the range of 0.5 to 20 µM.

On to `Cc1cc(S(=O)(=O)Nc2cc(-c3ccccc3)ccc2C(=O)O)ccc1-n1cnnn1` [I-357], for which the 50% inhibitory concentration (IC50) is 0.5 to 20 µM.

`N#Cc1cc(S(=O)(=O)Nc2cc(-c3ccccc3)c(F)cc2F)ccc1F` [I-381, 3-cyano-N-(4,6-difluoro-[1,1′-biphenyl]-3-yl)-4-fluorobenzenesulfonamide] had an IC50 greater than 20 µM.

On to `N#Cc1cc(Cl)cc(S(=O)(=O)Nc2cc(-c3ccccc3)c(F)cc2F)c1` [I-75, 3-chloro-5-cyano-N-(2,4-difluoro-5-phenylphenyl) benzene-1-sulfonamide], for which the IC50 lay in the range of 0.5 to 20 µM.

In the case of `COc1c(Cl)cc(C#N)cc1S(=O)(=O)Nc1cc(-c2ccccc2)ccc1F` [I-51, 3-chloro-5-cyano-N-(4-fluoro-[1,1′-biphenyl]-3-yl)-2-methoxybenzenesulfonamide], the IC50 was in the range of 0.5 to 20 µM.

Molecule `O=S(=O)(Nc1cc(-c2ccccc2)ccc1F)c1cc(Cl)cc(Cl)c1OCC(F)(F)F` [I-85, 3,5-dichloro-N-(2-fluoro-5-phenylphenyl)-2-(2,2,2-trifluoroethoxy)benzene-1-sulfonamide] had an IC50 of 0.5 to 20 µM.

The molecule `COc1ccc(C(=O)N2CCC2)cc1S(=O)(=O)Nc1cc(-c2ccccc2)c(F)cc1F` [I-384, 5-(azetidine-1-carbonyl)-N-[4,6-difluoro-[1,1-biphenyl]-3-yl]-2-methoxybenzene-1-sulfonamide] registered an IC50 greater than 20 µM.

With `O=S(=O)(Nc1cnc(-c2ccccc2)s1)c1cc(Cl)cc(Cl)c1O` [I-189], the IC50 was 0.5 to 20 µM.

`COc1ccc(-c2ccccc2)cc1N(C)S(=O)(=O)c1cc(C(=O)O)cc(Cl)c1O` [I-426, 3-chloro-4-hydroxy-5-[(2-methoxy-5-phenylphenyl)(methyl)sulfamoyl]benzoic acid] had an IC50 greater than 20 µM.

`O=S(=O)(Nc1cc(-c2ccccc2)c(F)cc1F)c1cc(Cl)cc(C(F)(F)F)c1` [I-204, 3-chloro-N-[4,6-difluoro-[1,1-biphenyl]-3-yl]-5-(trifluoromethyl)benzene-1-sulfonamide] showed an IC50 of 0.5 to 20 µM.

As to `CC(C)(C)OC(=O)n1ccc2cccc(S(=O)(=O)Nc3cc(-c4ccccc4)ccc3F)c21` [I-382, tert-butyl 7-(N-(4-fluoro-[1,1′-biphenyl]-3-yl)sulfamoyl)-1H-indole-1-carboxylate], the IC50 was greater than 20 µM.

As for `COc1ccc(-c2cccnc2)cc1NS(=O)(=O)c1cc(C(=O)O)cc(Cl)c1O` [I-427, 3-chloro-4-hydroxy-5-(N-(2-methoxy-5-(pyridin-3-yl)phenyl)sulfamoyl)benzoic Acid], the IC50 is greater than 20 µM.

As for `COc1ccc(-c2ccccc2)cc1NS(=O)(=O)c1cc(C(=O)O)cc(Cl)c1OC` [I-39, 3-chloro-4-methoxy-5-(N-(4-methoxy-[1,1′-biphenyl]-3-yl)sulfamoyl)benzoic Acid], the IC50 lay within 0.5 to 20 µM.

The molecule `CN(C)C(=O)c1cc(Cl)c(O)c(S(=O)(=O)Nc2cc(C3CC3)c(F)cc2F)c1` [I-231, 3-chloro-5-(N-(5-cyclopropyl-2,4-difluorophenyl)sulfamoyl)-4-hydroxy-N,N-dimethylbenzamide] came in with an IC50 of 0.5 to 20 µM.

In turn, `COc1ccc(Br)cc1NS(=O)(=O)c1cc(Cl)cc(Cl)c1O` [I-4, N-(5-bromo-2-methoxyphenyl)-3,5-dichloro-2-Hydroxybenzenesulfonamide] had an IC50 of 0.5 to 20 µM.

With `O=C(O)COc1ccc(-c2ccccc2)cc1NS(=O)(=O)c1cc(C(=O)N2CCC2)cc(Cl)c1O` [I-270, 2-([3-[5-(azetidine-1-carbonyl)-3-chloro-2-hydroxybenzenesulfonamido]-[1,1-biphenyl]-4-yl]oxy)acetic Acid], the IC50 was 0.5 to 20 µM.

For the molecule `O=S(=O)(Nc1ccc(F)cc1F)c1cc(Cl)cc(-c2nn[nH]n2)c1` [I-373, 3-chloro-N-(2,4-difluorophenyl)-5-(2H-1,2,3,4-tetrazol-5-yl)benzene-1-sulfonamide], the IC50 is greater than 20 µM.

The same experiment, now with this note: read-out: ACL-ADP-Glo (IC50); 3 nM ACL, 15 μM ATP, 3 μM CoA, 300 μM Citrate.
As to `O=C(c1cc(Cl)c(O)c(S(=O)(=O)Nc2cc(-c3ccccc3)c(F)cc2F)c1)N1CC(O)C1` [I-129, 3-chloro-N-(4,6-difluoro-[1,1′-biphenyl]-3-yl)-2-hydroxy-5-(3-hydroxyazetidine-1-carbonyl)benzenesulfonamide], the IC50 is less than 0.05 µM.

The target of the next experiment is T1, ACL. The experiment in a line: ACLY-MDH Coupled Assay.
Details: not given
Target sequence in this assay (P53396 whole entry, species assumed): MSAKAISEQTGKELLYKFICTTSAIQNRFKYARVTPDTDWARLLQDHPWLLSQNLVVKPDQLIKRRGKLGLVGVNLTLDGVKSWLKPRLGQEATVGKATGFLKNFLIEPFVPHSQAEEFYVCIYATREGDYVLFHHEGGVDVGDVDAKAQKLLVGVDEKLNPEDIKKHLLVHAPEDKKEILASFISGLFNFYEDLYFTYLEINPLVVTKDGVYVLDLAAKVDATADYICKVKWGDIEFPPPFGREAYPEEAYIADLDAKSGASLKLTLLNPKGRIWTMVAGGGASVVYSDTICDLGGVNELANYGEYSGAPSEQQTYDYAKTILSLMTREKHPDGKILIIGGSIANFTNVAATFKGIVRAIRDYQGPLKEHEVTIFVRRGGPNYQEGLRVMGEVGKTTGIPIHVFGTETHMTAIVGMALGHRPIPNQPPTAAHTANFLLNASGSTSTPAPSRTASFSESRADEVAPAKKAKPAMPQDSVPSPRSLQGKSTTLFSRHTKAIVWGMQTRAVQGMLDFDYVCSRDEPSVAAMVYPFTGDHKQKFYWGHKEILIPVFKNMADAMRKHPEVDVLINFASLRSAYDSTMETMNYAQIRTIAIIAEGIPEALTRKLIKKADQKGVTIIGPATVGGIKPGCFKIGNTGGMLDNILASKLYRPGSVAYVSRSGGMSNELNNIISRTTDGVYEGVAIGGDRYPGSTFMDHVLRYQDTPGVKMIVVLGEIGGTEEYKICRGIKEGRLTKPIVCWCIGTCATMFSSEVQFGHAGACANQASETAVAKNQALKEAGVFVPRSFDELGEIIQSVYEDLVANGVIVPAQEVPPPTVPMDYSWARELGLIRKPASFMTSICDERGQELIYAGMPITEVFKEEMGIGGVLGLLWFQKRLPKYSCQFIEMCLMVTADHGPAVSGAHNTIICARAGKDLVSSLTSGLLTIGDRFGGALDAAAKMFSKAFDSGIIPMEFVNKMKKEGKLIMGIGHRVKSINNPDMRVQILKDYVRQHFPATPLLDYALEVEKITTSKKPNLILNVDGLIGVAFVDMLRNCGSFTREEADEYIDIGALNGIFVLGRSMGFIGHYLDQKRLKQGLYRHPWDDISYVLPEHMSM
In turn, `O=C(c1cc(Cl)c(O)c(S(=O)(=O)Nc2cc(-c3ccccc3)c(F)cc2F)c1)N1CC(O)C1` [I-129, 3-chloro-N-(4,6-difluoro-[1,1′-biphenyl]-3-yl)-2-hydroxy-5-(3-hydroxyazetidine-1-carbonyl)benzenesulfonamide] yielded an IC50 of 0.05 to 0.5 µM.

In turn, `O=C(O)c1ccc(-c2ccccc2)cc1NS(=O)(=O)c1cc(Cl)c[nH]c1=O` [I-350, 3-((5-chloro-2-oxo-1,2-dihydropyridine)-3-sulfonamido)-[1,1′-biphenyl]-4-carboxylic acid] registered an IC50 of 0.5 to 30 µM.

In the case of `COC(=O)c1cc(Cl)c(O)c(C(=O)Nc2cc(-c3ccccc3)c(F)cc2F)c1` [I-146, methyl 3-chloro-5-((4,6-difluoro-[1,1′-biphenyl]-3-yl)carbamoyl)-4-hydroxybenzoate], the IC50 was 0.5 to 30 µM.

For `N#Cc1cc(Cl)cc(S(=O)(=O)Nc2cc(-c3ccccc3)ccc2F)c1O` [I-29, 5-chloro-3-cyano-N-(2-fluoro-5-phenylphenyl)-2-hydroxybenzene-1-sulfonamide], the IC50 was in the range of 0.5 to 30 µM.

Molecule `CC(C)(C)OC(=O)COc1ccc(-c2ccccc2)cc1NS(=O)(=O)c1cc(C(=O)N2CCC2)cc(Cl)c1O` [I-266, tert-butyl 2-((3-((5-(azetidine-1-carbonyl)-3-chloro-2-hydroxyphenyl)sulfonamido)-[1,1′-biphenyl]-4-yl)oxy)acetate] gave an IC50 of 0.5 to 30 µM.

As for `CC(C)(Oc1ccc(-c2ccccc2)cc1NS(=O)(=O)c1cc(Cl)cc(Cl)c1O)C(=O)O` [I-239, 2-((3-((3,5-dichloro-2-hydroxyphenyl)sulfonamido)-[1,1′-biphenyl]-4-yl)oxy)-2-methylpropanoic Acid], the IC50 lay within 0.5 to 30 µM.

The molecule `O=C(O)c1ccc(-c2ccccc2)cc1NS(=O)(=O)c1c(Cl)nc2sccn12` [I-332] yielded an IC50 of 0.5 to 30 µM.

These data come from US11555012B2 (Nimbus Artemis, Inc., priority 2018, dated 2023).
